Results from patent US20090247519A1, “AMINO-ETHYL-AMINO-ARYL (AEAA) COMPOUNDS AND THEIR USE” (priority 2006, published 2009).

Experiments:
PANC-1 cells [1] = assay: Neurotensin Proliferation Assay (BrdU incorporation, FACS); type: cell-based, human; details: 5 μM compound, 50 nM neurotensin
Description: Neurotensin Proliferation Assay
BrdU incorporation into PANC-1 cells was used to measure DNA synthesis and thus the level of cell proliferation. Cells were seeded in 10 cm^2 cell culture dishes in (1×10^6 cells/well in E4+10% FCS). After serum starvation (24 hours), cells were treated with an amino-ethyl-amino-aryl (AEAA) compound for 1 hour before addition of neurotensin (50 nM final concentration). Cells were then incubated for a further 23 hours before addition of BrdU (10 μM) for the final 1 hour. Samples were fixed using 70% ethanol and labelled with an anti-BrdU antibody (Becton Dickinson Cat No. 347580, Lot No. 13467) followed by a rabbit polyclonal anti-mouse-FITC antibody (DakoCytomation Cat No. F0313, Lot No. 00015066) and propidium iodide. Samples were then analysed by Fluorescent Activated Cell Sorting (FACS). The measured fluorescence was directly proportional to the incorporated BrdU.
FIG. 6 is a graphic representation of the results of the neurotensin proliferation assay. The columns in the graph represent the mean percentage of BrdU incorporation into PANC-1 cells as a measure for cell proliferation. The two left-hand columns represent the controls of DMSO (basal level of non-stimulated cell proliferation) and DMSO plus 50 nM neurotensin (stimulated cell proliferation). […]

[2] = biological target: T1, PKD1 Ser916 phosphorylation in PANC-1 cells (Homo sapiens, UniProt Q15139); assay: Western Blot 916 (Phospho-Ser916 PKD1) Assay in PDBu-stimulated PANC-1 cells; type: cell-based; details: 2-30 μM compound for 1 hour, then 200 nM PDBu 10 minutes, densitometry of western blot, read-out: IC50 for inhibition of PDBu-stimulated PKD1 Ser916 phosphorylation
T1 construct: endogenous in cells; host or cells: PANC-1 (ATCC CRL-1469)
T1 sequence (Q15139 1-912): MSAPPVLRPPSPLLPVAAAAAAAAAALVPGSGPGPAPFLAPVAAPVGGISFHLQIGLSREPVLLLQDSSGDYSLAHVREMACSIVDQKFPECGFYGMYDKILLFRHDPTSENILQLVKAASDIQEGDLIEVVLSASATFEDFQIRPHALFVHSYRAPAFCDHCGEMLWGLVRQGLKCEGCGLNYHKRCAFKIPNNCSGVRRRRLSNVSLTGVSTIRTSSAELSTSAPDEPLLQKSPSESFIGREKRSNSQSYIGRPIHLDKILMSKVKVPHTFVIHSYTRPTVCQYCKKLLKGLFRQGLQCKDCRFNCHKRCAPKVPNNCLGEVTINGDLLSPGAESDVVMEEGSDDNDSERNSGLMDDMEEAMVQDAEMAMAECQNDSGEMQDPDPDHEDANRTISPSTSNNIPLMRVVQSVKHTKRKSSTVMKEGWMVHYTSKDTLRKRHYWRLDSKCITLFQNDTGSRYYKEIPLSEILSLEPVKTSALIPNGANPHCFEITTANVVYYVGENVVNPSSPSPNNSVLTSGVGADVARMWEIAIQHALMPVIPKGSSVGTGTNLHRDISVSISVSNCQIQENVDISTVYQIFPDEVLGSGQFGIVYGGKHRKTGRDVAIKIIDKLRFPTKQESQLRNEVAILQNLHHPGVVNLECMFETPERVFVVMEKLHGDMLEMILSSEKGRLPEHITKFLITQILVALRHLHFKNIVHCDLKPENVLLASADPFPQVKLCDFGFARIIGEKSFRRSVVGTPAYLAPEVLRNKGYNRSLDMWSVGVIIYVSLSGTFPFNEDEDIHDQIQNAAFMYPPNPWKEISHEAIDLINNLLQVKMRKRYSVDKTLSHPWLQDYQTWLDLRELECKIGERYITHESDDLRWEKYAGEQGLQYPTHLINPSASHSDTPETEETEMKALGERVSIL
Description: Western Blot 916 (Phospho-Ser916 PKD1) Assay
PANC-1 (ATCC CRL-1469) cells were seeded in 6 well plates. After overnight serum starvation of cells, cells were washed twice in 1 mL serum-free media per well, then treatments were added in serum-free media.
Cells were treated with 2 μM, 5 μM, 10 μM, or 30 μM of an amino-ethyl-amino-aryl (AEAA) compound or with 3 μM GF1 (2-[1-(3-Dimethylaminopropyl)-1H-indol-3-yl]-3-(1H-indol-3-yl)-maleimide, a PKC inhibitor), for comparison purposes, for 1 hour. Then, 200 nM PDBu (phorbol, 12,13-dibutyrate) was added to the wells for 10 minutes. Two wells were used per treatment.
Cells were then scraped into lysis buffer (40 μL per well), samples were homogenised, and protein concentration determined. […]
FIG. 4 is a photographic depiction of the western blot analysis of cell lysates of PANC-1 cells which were treated with increasing amounts (2, 5, 10, 30 μM) of an amino-ethyl-amino-aryl (AEAA) compound (XX-032). Cell lysates were analysed using an anti-PKD1 Antibody (middle panel), anti-phospho-PKD1 (Ser916) Antibody (top panel) and anti-tubulin antibody (lower panel).
The shown columns represent the percentage phosphorylation as measured by densitometry of phospho-PKD1 (Ser916) levels. The results were normalised to the measured PKD1 levels and expressed as a percentage of the level of phosphorylation in the PDBu-stimulated control.

PANC-1 cells [3] = assay: Apoptosis Assay (Caspase-Glo caspase 3/7 activity); type: cell-based, human; details: 5 μM, 48 hours
Description: PANC-1 cells were seeded into 96 well plates (1×10^4 cells/well in E4+10% FCS) and placed in an incubator at 37° C., 5% CO2 overnight. Cells were serum starved (E4+0.5% FCS) for 16 hours and then treated with an amino-ethyl-amino-aryl (AEAA) compound in full media for 1 hour prior to treatment with Neurotensin (NT; 50 nM) for a further 23 hours or 47 hours (in E4+0.5% FCS; total exposure to test compound was 24 hours or 48 hours). Cells were then assayed for Caspase3/7 activity (Caspase-Glo; Promega) according to the manufacturer's instructions.
The Caspase-Glo assay is a homogenous luminescent assay that measures caspase 3 and 7 activities. […] When added to the cell samples, these reagents result in cell lysis, followed by caspase cleavage of the substrate and generation of a luminescent signal produced by luciferase, whereby the luminescence is proportional to the amount of caspase activity present. […]
The depicted columns show the change in viability or induction of apotosis in the presence of an amino-ethyl-amino-aryl (AEAA) compound (XX-032). Cell viability was measured by the MTT assay at two different time points (24 and 48 hours) and induction of apoptosis was measured by the caspase assay at two different time points (24 and 48 hours). The data are expressed as a percentage of the level in the corresponding control.

PANC-1 cells [4] = assay: MTT Assay (cell viability); type: cell-based, human; details: 5 μM, 48 hours
Description: The MTT (3-[4,5-dimethylthiazol-2-yl]-2,5-diphenyltetrazolium bromide) assay can be used to assess the effect of compounds on cell viability and proliferation and to determine whether a compound is cytotoxic. In living cells, the tetrazolium salt (MTT) is reduced to a coloured formazan product (1-[4,5-dimethylthiazol-2-yl]3,5-diphenylformazan), which can be quantified. The reduction of MTT is attributed to the mitochondrial function of cells.
PANC-1 cells were seeded into 96 well plates (1×10^4 cells/well in E4+10% FCS) and placed in an incubator at 37° C., 5% CO2 overnight. Cells were serum starved (E4+0.5% FCS) for 16 hours and then treated with an amino-ethyl-amino-aryl (AEAA) compound (XX-032) in full media for 1 hour prior to treatment with Neurotensin (50 nM) for a further 23 hours or 47 hours (in E4+0.5% FCS; total exposure to test compound was 24 hours or 48 hours; 37° C. 5% CO2). At the appropriate timepoint plates were removed from the incubator and the media was aspirated off. 50 μL per well of 2 mg/mL MTT solution was added and the plates were placed back into the incubator for 2.5 to 4 hours. After incubation, the plates were removed from the incubator and the MTT solution was completely aspirated off the cells. […] The plates were read in a 96 well plate reader at 562 nm (Lab Systems, Ascent Multiscan).

[5] = biological target: T2, Murine PKD1 kinase domain (Mus musculus, UniProt Q62101, R683W); assay: PKD1 (Murine Kinase Domain) Enzyme Activity Assay (IMAP fluorescence polarisation); type: biochemical; details: 10 μM ATP, 10 point dose-response
T2 construct: hexahistidine (His6, pFastBac HTb leader) (N); made in house; host or cells: Sf9 insect cells, baculovirus (Bac-to-Bac HT)
T2 sequence (Q62101 with tags, fused parts or gaps R683W): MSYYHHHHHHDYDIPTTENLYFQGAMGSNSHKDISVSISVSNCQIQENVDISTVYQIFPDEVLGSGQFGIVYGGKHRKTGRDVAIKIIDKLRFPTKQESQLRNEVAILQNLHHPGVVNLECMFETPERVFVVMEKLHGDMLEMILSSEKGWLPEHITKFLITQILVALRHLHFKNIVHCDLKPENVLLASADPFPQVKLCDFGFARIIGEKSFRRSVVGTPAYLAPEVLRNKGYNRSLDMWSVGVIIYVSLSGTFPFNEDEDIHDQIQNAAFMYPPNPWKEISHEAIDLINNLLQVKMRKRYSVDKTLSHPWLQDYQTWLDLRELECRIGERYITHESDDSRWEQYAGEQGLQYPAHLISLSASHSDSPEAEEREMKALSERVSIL
Description: The DNA sequence corresponding to murine PKD1 (see FIG. 1) was inserted into pFastBAc Htb (Invitrogen, USA) at BamH1 and EcoR1 sites using standard molecular biology techniques.
The PKD1 described above was expressed as a hexahistidine tagged protein construct using a commercially available baculoviral expression system that induces protein production in insect cell culture (Bac-to-Bac® HT Baculovirus Expression System, Invitrogen). Protein was typically expressed by inoculating 1 L of sf9 cells with a genetically modified baculovirus containing the gene for the kinase domain of PKD1. Sf9 cells were obtained from ICR Ltd.
Purification of PKD1 was achieved by standard chromatographic procedures. Capture from crude centrifuged lysed cell supernatant was achieved using metal affinity chromatography (GE Healthcare Life Sciences, HiTrap Chelating chromatography column), and fractions showing PKD1 (as assessed by gel electrophoresis and western blot) were further purified by a single purification step. This was a performed using a mono Q anion exchange chromatography system (GE Healthcare Life Sciences, HiTrap HP Q column). […] This protocol describes the method for screening compounds as inhibitors of Protein Kinase D activity in a 384 well microplate format fluorescence polarisation IMAP assay performed using the Biomek FX. […]

IC50 [2] | IC50 [5] | SMILES | Neurotensin-stimulated PANC-1 proliferation (BrdU incorporation) (PANC-1 cells [1]) | increase in caspase 3/7 activity (PANC-1 cells [3]) | decrease in cell viability (MTT) (PANC-1 cells [4])
~4000 nM | – | CC[C@@H](N)CNc1nc(-c2cc(Cl)ccc2O)nc2ccccc12 [XX-032, 2-[4-((R)-2-Amino-butylamino)-quinazolin-2-yl]-4-chloro-phenol] | inhibited to basal levels | 5 fold | 2 fold
– | 16 nM | NCCNc1nc(-c2cc(Cl)ccc2O)nc2ccccc12 [XX-097, 2-[4-(2-Amino-ethylamino)-quinazolin-2-yl]-4-chloro-phenol] | – | – | –
